Experimental data from patent US20240287093A1, “HIGH ACTIVITY STING PROTEIN AGONIST” (ADLAI NORTYE BIOPHARMA CO., LTD., priority 2018, published 2024).

What was measured:
Type in all cases: cell-based
STING = target: T1, STING (Homo sapiens, UniProt Q86WV6, G230A/H232R/R293Q/R71H); assay: IFNβ release from THP1 by STING activation (hIFNβ ELISA); details: THP1 cells, 24 h, IFN-β in supernatant; inactive = IFNβ not detected at the maximum concentration of compounds
T1 construct: THP1 was purchased from National Collection of Authenticated Cell Cultures (Cat #TCHu 57); host or cells: THP1
Experimental: Example III: Compound Stimulate THP1 to Release IFNβ by STING Activation
In this assay, activation of STING by compounds was evaluated by detecting their ability to stimulate the secretion of IFN-β (interferon-beta) from THP1. THP1 was purchased from National Collection of Authenticated Cell Cultures (Cat #TCHu 57). The top dose of compounds was setted according to their solubility. First, Compounds were 3 times diluted with medium, 8-dose points in total. The final DMSO concentration was 0.2%. THP1 during the logarithmic phase was resuspended to 2×10^6 cells/ml in assay medium. The THP1-cell suspension was dispensed into a 96-well U bottom plate containing 50 ul of compound diluted in medium. After 24 h incubation at 37° C., 5% CO2, the supernatant was collected. The concentration of IFN-β in the supernatant was measured using a human IFNβ ELISA KIT (R&D, DY814-05). The data was fitted with GraphPad Prism or XLfit to calculate EC50 values.

STING variants (HAQ) = target: T2, STING variants (HAQ) (Homo sapiens, UniProt Q86WV6, G230A/R293Q/R71H); assay: SEAP reporter assay in HEK-Blue ISG KO-STING cells transfected with STING HAQ variant (Method 1); details: 24 h
T2 construct: host or cells: HEK-Blue ISG KO-STING cells (Invivogen, hkb-kostg)
Source text: (§1) Example I: STING Variants (WT & HAQ) Activation by Compounds in HEK-Blue™ ISG KO-STING Cells (Method 1)
(§2) Activation of STING can be determined using a SEAP reporter assay in HEK-Blue™ ISG KO-STING cells (Invivogen, cat #hkb-kostg) transfected with plasmids expressing STING variants (WT & HAQ) (referred to WO2017/175147A1). STING variants (WT & HAQ) vector were constructed based on STING-232H vector (Origene, RC208418). GFP vector (VT2069) was bought from Youbio. The detailed protocol as follows: HEK-Blue™ ISG KO-STING cells were harvest and seeding into 96 well plate, the final cell number was 0.8×10^5 cells/well. Transfections were prepared using Lipofectamine 2000 (Invitrogen, Cat #11668-027) following the manufacturer's instructions (Lipo2000:DNA=1:10), 20 ul of transfection suspension containing 1 ng STING vector was added to cell culture plate and incubated at 37° C., 5% CO2 for 24 h. After 24 hours incubation, compounds were added at proper concentration, and the final DMSO concentration was 0.5%. After 24 h incubation, the supernatant was collected to detect SEAP signal using Great EscAPe SEAP chemiluminescence KIT (Clontech, cat #631738) and cells were collected to detect cell viability using CellTiter-Glo Luminescent Cell Viability Assay (Promega, cat #G7573) following the manufacturer's instructions. The data were described by the ratio of the stimulating signal of compounds to 0.5% DMSO.

STING variants (WT) = target: T3, STING variants (WT) (Homo sapiens, UniProt Q86WV6); assay: SEAP reporter assay in HEK-Blue ISG KO-STING cells transfected with STING WT variant (Method 1); details: 24 h
T3 construct: host or cells: HEK-Blue ISG KO-STING cells (Invivogen, hkb-kostg)
Source text: as §1, §2

[1] = compound concentration 31.25 μM, SEAP signal ratio to 0.5% DMSO
[2] = compound concentration 115.2 μM
[3] = compound concentration 206.6 μM
[4] = compound concentration 75.95 μM
[5] = compound concentration 153.2 μM
[6] = compound concentration 125.3 μM
[7] = compound concentration 127.7 μM

T2 sequence (Q86WV6 whole entry R71H/G230A/R293Q): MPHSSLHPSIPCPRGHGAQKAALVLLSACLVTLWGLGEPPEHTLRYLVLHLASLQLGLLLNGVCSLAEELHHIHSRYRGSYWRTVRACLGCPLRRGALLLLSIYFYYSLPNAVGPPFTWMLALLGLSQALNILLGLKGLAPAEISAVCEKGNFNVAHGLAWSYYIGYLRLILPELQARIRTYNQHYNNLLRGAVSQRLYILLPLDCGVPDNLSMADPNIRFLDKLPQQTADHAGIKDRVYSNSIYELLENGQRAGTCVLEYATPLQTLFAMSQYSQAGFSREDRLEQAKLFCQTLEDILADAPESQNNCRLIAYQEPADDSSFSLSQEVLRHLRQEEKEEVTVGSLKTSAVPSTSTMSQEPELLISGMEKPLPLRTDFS
T1 sequence (Q86WV6 whole entry R71H/G230A/H232R/R293Q): as the sequence (Q86WV6 whole entry R71H/G230A/R293Q) above, with H232R counted along it

CCn1nc(C)cc1C(=O)Nc1nc2cc(C(N)=O)cc3c2n1[C@@H](CCCNC(=O)OCc1ccccc1)CO3 [Example 1, Benzyl (S)-(3-(7-carbamoyl-2-(1-ethyl-3-methyl-1H-pyrazole-5-carboxamido)-3,4-dihydro-5-oxa-1,2a-diazaacenaphthylen-3-yl)propyl)carbamate]
hIFNβ ELISA (EC50, μM) (STING): inactive | Fold change related to DMSO control, HAQ (STING variants (HAQ); [1]): 21.49 fold | Fold change related to DMSO control, WT (STING variants (WT); [1]): 3.08 fold

CCn1nc(C)cc1C(=O)Nc1nc2cc(C(N)=O)cc3c2n1[C@H](CCCNC(=O)OCc1ccccc1)CO3 [Example 2, Benzyl (R)-(3-(7-carbamoyl-2-(1-ethyl-3-methyl-1H-pyrazole-5-carboxamido)-3,4-dihydro-5-oxa-1,2a-diazaacenaphthylen-3-yl)propyl)carbamate]
hIFNβ ELISA (EC50, μM) (STING): inactive | Fold change related to DMSO control, HAQ (STING variants (HAQ); compound concentration 77.9 μM): 6.46 fold | Fold change related to DMSO control, WT (STING variants (WT); compound concentration 77.9 μM): 2.25 fold

CCn1nc(C)cc1C(=O)Nc1nc2cc(C(N)=O)cc3c2n1[C@@H](CCNC(=O)COc1ccccc1)CO3 [Example 7, (S)-2-(1-Ethyl-3-methyl-1H-pyrazole-5-carboxamido)-3-(2-(2-phenoxyacetamido)ethyl)-3,4-dihydro-5-oxa-1,2a-diazaacenaphthylene-7-carboxamide]
hIFNβ ELISA (EC50, μM) (STING): inactive | Fold change related to DMSO control, HAQ (STING variants (HAQ); [2]): 13.64 fold | Fold change related to DMSO control, WT (STING variants (WT); [2]): 2.70 fold

CCn1nc(C)cc1C(=O)Nc1nc2cc(C(N)=O)cc3c2n1[C@@H](CCNC(=O)OCc1cccnc1)CO3 [Example 8, Pyridin-3-ylmethyl (S)-(2-(7-carbamoyl-2-(1-ethyl-3-methyl-1H-pyrazole-5-carboxamido)-3,4-dihydro-5-oxa-1,2a-diazaacenaphthylen-3-yl)ethyl)carbamate]
hIFNβ ELISA (EC50, μM) (STING): inactive | Fold change related to DMSO control, HAQ (STING variants (HAQ); compound concentration 73.3 μM): 13.17 fold | Fold change related to DMSO control, WT (STING variants (WT); compound concentration 73.3 μM): 3.47 fold

CCn1nc(C)cc1C(=O)Nc1nc2cc(C(N)=O)cc3c2n1[C@@H](CCNC(=O)OCc1ccccn1)CO3 [Example 9, Pyridin-2-ylmethyl (S)-(2-(7-carbamoyl-2-(1-ethyl-3-methyl-1H-pyrazole-5-carboxamido)-3,4-dihydro-5-oxa-1,2a-diazaacenaphthylen-3-yl)ethyl)carbamate]
hIFNβ ELISA (EC50, μM) (STING): inactive | Fold change related to DMSO control, HAQ (STING variants (HAQ); [3]): 21.28 fold | Fold change related to DMSO control, WT (STING variants (WT); [3]): 2.86 fold

CCn1nc(C)cc1C(=O)Nc1nc2cc(C(N)=O)cc3c2n1CCO3 [Example 11, 2-(1-Ethyl-3-methyl-1H-pyrazole-5-carboxamido)-3,4-dihydro-5-oxa-1,2a-diazaacenaphthylene-7-carboxamide]
hIFNβ ELISA (EC50, μM) (STING): inactive | Fold change related to DMSO control, HAQ (STING variants (HAQ); compound concentration 27.9 μM): 4.20 fold | Fold change related to DMSO control, WT (STING variants (WT); compound concentration 27.9 μM): 2.26 fold

CCn1nc(C)cc1C(=O)Nc1nc2cc(C(N)=O)cc3c2n1[C@@H](C)CO3 [Example 12]
EC50 (STING): > 8.9 µM | Fold change related to DMSO control, HAQ (STING variants (HAQ); compound concentration 52.6 μM): 27.37 fold | Fold change related to DMSO control, WT (STING variants (WT); compound concentration 52.6 μM): 3.31 fold

CCn1nc(C)cc1C(=O)Nc1nc2cc(C(N)=O)cc3c2n1[C@@H](CCNC(=O)/C=C/c1ccccc1)CO3 [Example 15, (S)-3-(2-Cinnamamidoethyl)-2-(1-ethyl-3-methyl-1H-pyrazole-5-carboxamido)-3,4-dihydro-5-oxa-1,2a-diazaacenaphthylene-7-carboxamide]
hIFNβ ELISA (EC50, μM) (STING): inactive | Fold change related to DMSO control, HAQ (STING variants (HAQ); [4]): 20.00 fold | Fold change related to DMSO control, WT (STING variants (WT); [4]): 3.68 fold

CCn1nc(C)cc1C(=O)Nc1nc2cc(C(N)=O)cc3c2n1C[C@@H](C)O3 [Example 16, (R)-2-(1-Ethyl-3-methyl-1H-pyrazole-5-carboxamido)-4-methyl-3,4-dihydro-5-oxa-1,2a-diazaacenaphthylene-7-carboxamide]
hIFNβ ELISA (EC50, μM) (STING): inactive | Fold change related to DMSO control, HAQ (STING variants (HAQ); compound concentration 42.8 μM): 15.06 fold | Fold change related to DMSO control, WT (STING variants (WT); compound concentration 42.8 μM): 3.00 fold

CCn1nc(C)cc1C(=O)Nc1nc2cc(C(N)=O)cc3c2n1[C@@H](CCCCNC(=O)OCc1cccnc1)CO3 [Example 18, Pyridin-3-ylmethyl (S)-(4-(7-carbamoyl-2-(1-ethyl-3-methyl-1H-pyrazole-5-carboxamido)-3,4-dihydro-5-oxa-1,2a-diazaacenaphthylen-3-yl)butyl)carbamate]
hIFNβ ELISA (EC50, μM) (STING): inactive | Fold change related to DMSO control, HAQ (STING variants (HAQ); [5]): 17.64 fold | Fold change related to DMSO control, WT (STING variants (WT); [5]): 1.58 fold

CCn1nc(C)cc1C(=O)Nc1nc2cc(C(N)=O)cc3c2n1[C@@H](CCCCNC(=O)OCc1ccccn1)CO3 [Example 19, Pyridin-2-ylmethyl (S)-(4-(7-carbamoyl-2-(1-ethyl-3-methyl-1H-pyrazole-5-carboxamido)-3,4-dihydro-5-oxa-1,2a-diazaacenaphthylen-3-yl)butyl)carbamate]
hIFNβ ELISA (EC50, μM) (STING): inactive | Fold change related to DMSO control, HAQ (STING variants (HAQ); [6]): 20.80 fold | Fold change related to DMSO control, WT (STING variants (WT); [6]): 1.65 fold

CCn1nc(C)cc1C(=O)Nc1nc2cc(C(N)=O)cc3c2n1[C@@H](CCCCNC(=O)OCc1ccncc1)CO3 [Example 20, Pyridin-4-ylmethyl (S)-(4-(7-carbamoyl-2-(1-ethyl-3-methyl-1H-pyrazole-5-carboxamido)-3,4-dihydro-5-oxa-1,2a-diazaacenaphthylen-3-yl)butyl)carbamate]
hIFNβ ELISA (EC50, μM) (STING): inactive | Fold change related to DMSO control, HAQ (STING variants (HAQ); [7]): 16.22 fold | Fold change related to DMSO control, WT (STING variants (WT); [7]): 1.43 fold

CCn1nc(C)cc1C(=O)Nc1nc2cc(C(N)=O)cc3c2n1[C@@H](C)CCO3 [Example 22, (S)-1-(1-Ethyl-3-methyl-1H-pyrazole-5-carboxamido)-9-methyl-8,9-dihydro-7H-6-oxa-2,9a-diazabenzo[cd]azulene-4-carboxamide]
hIFNβ ELISA (EC50, μM) (STING): inactive | Fold change related to DMSO control, HAQ (STING variants (HAQ); compound concentration 25 μM): 95.64 fold | Fold change related to DMSO control, WT (STING variants (WT); compound concentration 25 μM): 3.02 fold

CCC[C@H]1COc2cc(C(N)=O)cc3nc(NC(=O)c4cc(C)nn4CC)n1c23 [Example 23, (S)-2-(1-Ethyl-3-methyl-1H-pyrazole-5-carboxamido)-3-propyl-3,4-dihydro-5-oxa-1,2a-diazacenaphthylene-7-carboxamide]
hIFNβ ELISA (EC50, μM) (STING): inactive | Fold change related to DMSO control, HAQ (STING variants (HAQ); compound concentration 25 μM): 81.27 fold | Fold change related to DMSO control, WT (STING variants (WT); compound concentration 25 μM): 2.62 fold

CCn1nc(C)cc1C(=O)Nc1nc2cc(C(N)=O)cc3c2n1[C@@H](Cc1ccccc1)CO3 [Example 24, (S)-3-Benzyl-2-(1-ethyl-3-methyl-1H-pyrazole-5-carboxamido)-3,4-dihydro-5-oxa-1,2a-diazaacenaphthylene-7-carboxamide]
hIFNβ ELISA (EC50, μM) (STING): inactive | Fold change related to DMSO control, HAQ (STING variants (HAQ); compound concentration 25 μM): 65.85 fold | Fold change related to DMSO control, WT (STING variants (WT); compound concentration 25 μM): 2.33 fold

CCn1nc(C)cc1C(=O)Nc1nc2cc(C(N)=O)cc3c2n1[C@@H](C(C)C)CO3 [Example 25, (S)-2-(1-Ethyl-3-methyl-1H-pyrazole-5-carboxamido)-3-isopropyl-3,4-dihydro-5-oxa-1,2a-diazaacenaphthylene-7-carboxamide]
EC50 (STING): > 16.7 µM | Fold change related to DMSO control, HAQ (STING variants (HAQ); compound concentration 25 μM): 56.18 fold | Fold change related to DMSO control, WT (STING variants (WT); compound concentration 25 μM): 2.24 fold

CC[C@H]1COc2cc(C(N)=O)cc3nc(NC(=O)c4cc(C)nn4CC)n1c23 [Example 26, (S)-3-Ethyl-2-(1-ethyl-3-methyl-1H-pyrazole-5-carboxamido)-3,4-dihydro-5-oxa-1,2a-diazaacenaphthylene-7-carboxamide]
EC50 (STING): 11.4 µM | Fold change related to DMSO control, HAQ (STING variants (HAQ); compound concentration 25 μM): 63.91 fold | Fold change related to DMSO control, WT (STING variants (WT); compound concentration 25 μM): 2.00 fold
